Assays:
32D-3 cells [1] = experiment: Viability of stably transfected 32D-3 cells in culture (trypan blue exclusion); assay type: cell-based; settings: cells expressing the protein, followed over days in culture, versus Neo control
Description: FIG. 2A. Cell viability as determined by trypan blue exclusion (mean +/− standard deviation of 3 determinations). W.T., wild-type Bcl-2; P59S, mutant Bcl-2; Neo, control.
32D-3 cells were stably transfected with expression plasmids containing a G418 antibiotic resistance gene and either a wild-type or mutant human Bcl-2 DNA sequence. The mutant Bcl-2 sequence encodes a variant Bcl-2 protein having a serine substitution for a proline at amino acid position 59 (BCL2/P59S). This amino acid substitution results in a high level of constitutive expression of BCL2/P59S.
Following selection of the cells for G418 resistance, cells were plated and their viability was determined.

[2] = test system: in vitro self-assembled nuclei; experiment: Cell-free apoptosis assay: nuclei assembled in Xenopus egg extracts with sperm chromatin; design: species or system Xenopus laevis
Description: A cell-free assay for assessing Bcl-2 function was developed to rapidly screen compounds for ability to inhibit or enhance Bcl-2 protein function. The assay utilizes in vitro self-assembled nuclei generated by mixing cell extracts derived from Xenopus laevis eggs with isolated sperm chromatin. The nuclei assemble normally but, after about 2 hours, begin to disintegrate. The nuclei appeared contracted and had the same appearance as isolated nuclei that had been treated briefly with an endonuclease. This phenomenon appears to represent apoptosis. Alternatively, isolated hepatocyte nuclei can be substituted for sperm chromatin and mixed with the egg extracts, resulting in the same phenomenon.
To test the effect of Bcl-2 protein on nuclei, lysates were prepared from Sf9 insect cells infected with recombinant baculoviruses encoding either Bcl-2 or an irrelevant protein such as β-galactosidase (β-gal) or the Lck kinase (see Reed et al., Anal. Biochem. 205:70-76 (1992). To confirm that Bcl-2 was expressed in the insect cell lysates, Sf9 insect cells were infected with recombinant Bcl-2 baculovirus or recombinant Lck baculovirus vectors. Infected cells were incubated for three days to allow expression of the gene products, then lysates were obtained and fractionated by SDS-PAGE electrophoresis. Following electrophoresis, proteins were transferred to membrane and probed with an antiserum raised against a synthetic peptide corresponding to part of the predicted amino acid sequence of human Bcl-2. […] Bcl-2 protein comprised about 5-10% of the total extracted protein.
Sf9 cell lysates were added at a 1:90 dilution into the Xenopus extracts or to a final protein concentration of 10 μg/ml (see Newmeyer and Wilson, Meth. Cell Biol. 36:607-634 (1991), which is incorporated herein by reference). […] After about another 40 min of incubation, the nuclei had disintegrated completely (FIG. 9B) and a generally dispersed filamentous background of Hoechst fluorescence remained along with many small spherical or irregularly shaped aggregates of chromatin (not shown). […]

32D-3 cells [3] = experiment: Survival of transfected 32D-3 cells cultured without growth factor; assay type: cell-based; settings: 32D-3 cells expressing the protein, growth factor deprivation
Description: FIGS. 5A and 5B. Homologs of Bcl-2 prolong survival of 32D-3 cells grown in the absence of Il-3 for various times. Cell viability as determined by the trypan blue exclusion (mean +/− standard deviation of 3 determinations).
FIGS. 6A to 6C. Bcl-2 acts synergistically with Raf-1 to prolong cell survival under conditions of growth factor deprivation. Bcl-2 protein, alone (open circles); activated Raf-1 protein, alone (squares); Bcl-2+Raf-1 proteins (closed circles); no Bcl-2 or Raf-1 protein (triangles).
FIG. 7. A dominant-negative form of the Bcl-2 protein, Bcl-2β, accelerates cell death. Cell viability as determined by trypan blue exclusion. […]
32D-3 cells were stably transfected with expression plasmids containing either a hygromyin (HYG) or a G418 (NEO) antibiotic resistance gene and cDNA encoding either the human Bcl-2 protein, the chicken Bcl-2 protein or the BHRF-1 protein from Epstein Barr Virus (viral homolog of Bcl-2). […] Following transfection, cells were cultured without growth factor for various times and the number of viable cells was determined.
32D-3 cells were stably transfected with expression plasmids producing Bcl-2 protein, activated Raf-1 protein or both Bcl-2 and Raf-1, then cultured under conditions of growth factor deprivation that cause apoptosis. At various times after removing the growth factor from the medium, cells were collected and viability was determined. […]

AT-3 cells = experiment: Sindbis virus-induced death of AT-3 prostate cancer cells (trypan blue exclusion); assay type: cell-based, rat; settings: AT-3 cells infected with pZIP-BCL2, grown with Sindbis virus
Description: FIG. 3. Bcl-2 blocks prostate cancer cell line, AT-3, death induced by Sindbis virus infection. Cell viability as determine by trypan blue exclusion (mean +/− standard deviation of 3 determinations). pZIP-BCL2 or pZIP-NEO are described in FIG. 1B. AT-3-NEO control cells (circles); AT-3-BCL2 cells (squares). Virus infected cells (solid symbols); cells cultured in the absence of virus (open symbols).
A rat prostate cancer cell line, AT-3, was infected with pZIP-BCL2 or pZIP-NEO (see FIG. 1B), then grown in the presence or absence of Sindbis virus. At various times after the addition of Sindbis virus, cells were collected and cell viability was determine using trypan blue exclusion.

PC12 cells = experiment: Glutamate-induced death of PC12 cells (MTT dye reduction assay); assay type: cell-based, rat; settings: PC12 cells infected with pZIP-BCL-2; 30 mM glutamate, 24 hours
Description: FIG. 4. Protection of PC12 cells from glutamate-induced death by Bcl-2. Cell viability as determined by MTT dye reduction assay (mean +/− standard deviation of 3 determinations).
The rat pheochromocytoma cell line, PC12, was stably infected with pZIP-BCL-2 or pZIP-NEO (see FIG. 1B), then treated with 30 mM glutamate for 24 hours. Following treatment, cell viability was assessed by MTT dye reduction assay as described in Tada et al., J. Immunol. Meth. 93:157-165 (1986).

In the case of “Bcl-2: about 26 kDa protein that promotes cell survival by blocking apoptosis; expressed by gene transfer or added as Sf9 lysate”, the “number of viable cells in culture” value (32D-3 cells [1]) is reported as “did not decrease during the time examined”, the “intact, transport-competent nuclei” value ([2]; after 2 hours of incubation, Bcl-2-containing Sf9 lysate added to Xenopus extract) is reported as “about 50%” and the “nuclei remaining intact and transport-competent” value ([2]; after two hours and forty min incubation, Bcl-2-containing Sf9 lysate) is reported as 42%. For the same molecule, the “amount of fluorescent transport substrate imported by nuclei” value ([2]; in one hour, Bcl-2-containing lysate) was “no gross changes”, the “cell viability / survival without growth factor” value (32D-3 cells [3]) was “modest effect” and the “protection from Sindbis virus-induced cell death” value (AT-3 cells) was “protected from Sindbis virus-induced death”. For the same molecule, the “protection from glutamate-induced cell death” value (PC12 cells) was “protected the PC12 cells from glutamate-induced death”.

B1: chicken Bcl-2: chicken Bcl-2 homolog expressed from cDNA in 32D-3 cells (protein, UniProt Q00709 1-233, looked up)
Apoptosis regulator Bcl-2: MAHPGRRGYDNREIVLKYIHYKLSQRGYDWAAGEDRPPVPPAPAPAAAPAAVAAAGASSHHRPEPPGSAAASEVPPAEGLRPAPPGVHLALRQAGDEFSRRYQRDFAQMSGQLHLTPFTAHGRFVAVVEELFRDGVNWGRIVAFFEFGGVMCVESVNREMSPLVDNIATWMTEYLNRHLHNWIQDNGGWDAFVELYGNSMRPLFDFSWISLKTILSLVLVGACITLGAYLGHK
B1 was tested, and the “cell viability / survival without growth factor” value (32D-3 cells [3]) was “nearly as effective as the human Bcl-2”.
